Consider 26 molecules from US7915293B2, “Ubiquitin ligase inhibitors” (Rigel Pharmaceuticals, Inc., priority 2003, dated 2011).

One experiment deals with E3 (His-APC11/APC2-"APC") (Homo sapiens, UniProt Q9NYG5+Q9UJX6). As to the kind of experiment: Plate-based E3 ligase assay (APC FLAG), auto-ubiquitination. The format is biochemical. The arrangement: key: “+” indicates that the compound exibits inhibitory activity; “−” indicates that low or no inhibitory activity was observed. Particulars: 2 concentrations tested. As to the method: E3 (His-APC11/APC2-“APC”) auto-ubiquitination was measured as described in U.S. patent application Ser. No. 09/826,312 (Publication No. US-2002-0042083-A1), which is incorporated herein in its entirety. Details of the protocol are described below. Activity in the presence of the compound was determined relative to a parallel control in which only DMSO was added. Values of the IC50 were typically determined using 6 or 8 different concentrations of the compound, although as few as 2 concentrations may be used to approximate the IC50 value.
Chain of E3 (His-APC11/APC2-"APC") (Q9NYG5 whole entry): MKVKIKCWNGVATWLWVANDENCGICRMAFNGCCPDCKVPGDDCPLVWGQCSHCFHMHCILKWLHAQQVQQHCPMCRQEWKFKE
Chain of E3 (His-APC11/APC2-"APC") (Q9UJX6 whole entry): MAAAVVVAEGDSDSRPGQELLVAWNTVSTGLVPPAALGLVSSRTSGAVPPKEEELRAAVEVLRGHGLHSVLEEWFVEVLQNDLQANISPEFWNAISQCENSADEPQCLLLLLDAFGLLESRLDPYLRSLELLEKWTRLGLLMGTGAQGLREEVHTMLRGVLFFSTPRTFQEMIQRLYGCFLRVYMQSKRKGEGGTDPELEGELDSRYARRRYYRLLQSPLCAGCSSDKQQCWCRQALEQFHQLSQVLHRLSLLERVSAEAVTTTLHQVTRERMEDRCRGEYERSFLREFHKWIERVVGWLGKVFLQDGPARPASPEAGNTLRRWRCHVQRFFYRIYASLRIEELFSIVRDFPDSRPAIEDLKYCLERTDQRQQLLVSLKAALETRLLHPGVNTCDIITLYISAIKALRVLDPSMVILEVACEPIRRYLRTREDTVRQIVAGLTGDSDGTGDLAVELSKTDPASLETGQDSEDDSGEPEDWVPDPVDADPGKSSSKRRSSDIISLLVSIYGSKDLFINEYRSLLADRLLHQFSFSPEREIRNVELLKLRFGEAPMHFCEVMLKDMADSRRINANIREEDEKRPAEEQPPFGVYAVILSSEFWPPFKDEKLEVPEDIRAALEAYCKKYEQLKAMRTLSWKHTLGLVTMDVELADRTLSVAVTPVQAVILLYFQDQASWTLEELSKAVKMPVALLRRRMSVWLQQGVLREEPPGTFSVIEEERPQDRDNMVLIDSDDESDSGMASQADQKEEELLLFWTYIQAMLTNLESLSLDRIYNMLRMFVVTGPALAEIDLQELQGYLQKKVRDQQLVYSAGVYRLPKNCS
Nickel-coated 96-well plates (Pierce 15242) were blocked for 1 hour with 100 μl of blocking buffer at room temperature. The plates were washed 4 times with 225 μl of 1×PBS and 80 μl of the reaction buffer were added that contained 100 ng/well of Flag-ubiquitin. To this, 10 μl of the test compound diluted in DMSO were added. After the test compound was added, 10 μl of E1 (human), E2 (Ubch5c), and APC in Protein Buffer was added to obtain a final concentration of 5 ng/well of E1, 20 ng/well of E2 and 100 ng/well of APC. The plate were shaken for 10 minutes and incubated at room temperature for 1 hour. After incubation, the plates were washed 4 times with 225 μl of 1×PBS and 100 μl/well of Antibody Mix were added to each well. The plates were incubate at room temperature for another hour after which they were washed 4 times with 225 μl of 1×PBS and 100 μl/well of Lumino substrate were added to each well. The luminescence was measured by using a BMG luminescence microplate reader.
To prepare the Blocking Buffer (1 liter; 1% Casein in 1×PBS), 10 grams of Casein (Hammersten Grade Casein from Gallard-Schlesinger Inc. #440203) were placed into 1 liter of 1×PBS, stirred on a hot plate and kept between 50-60° C. for an hour. The buffer was allowed to cool to room temperature and then filtered using a Buchner Funnel (Buchner filter funnel 83 mm 30310-109) and Whatman filter paper (Whatman Grade No. 1 Filter paper 28450-070). It was stored at 4° C. until used.
The reaction buffer consisted of 62.5 mM Tris pH 7.6 (Trizma Base—Sigma T-8524), 3 mM MgCl2 (Magnesium Chloride—Sigma M-2393), 1 mM DTT (Sigma D-9779), 2.5 mM ATP (Roche Boehringer Mann Corp. 635-316), 100 ng/well of Flag-ubiquitin, 0.1% BSA (Sigma A-7906), and 0.05% Tween-20 (Sigma P-7949).
The Protein Buffer consisted of 20 mM Tris pH 7.6, 10% glycerol (Sigma G-5516) and 1 mM DTT.
The antibody mix consisted of 0.25% BSA (Sigma A-7906) in 1×PBS, 1/50,000 anti-Flag (Sigma F-3165), 1/100,000 of anti-Mouse IgG-HRP (Jackson Immunoresearch #115-035-146).
The substrate mix consisted of SuperSignal Substrate from Pierce (catalog number 37070ZZ) and was prepared by mixing 100 ml of the peroxide solution, 100 ml of the enhancer solution and 100 ml of Milli-Q® water.
As to `CC(=O)c1cccc(NS(=O)(=O)c2cc(Cl)c(Oc3ccc([N+](=O)[O-])cc3Cl)c(Cl)c2)c1` [Example 186, N-(3-acetylphenyl)-3,5-dichloro-4-(2-chloro-4-nitrophenoxy)benzenesulfonamide], the “APC Flag (2 pt)” value is listed as “− (2 pt)”.
As to `O=S(=O)(Nc1cccc(Br)c1)c1ccc(Oc2ccc(F)cc2)cc1` [Example 187, N-(3-bromophenyl)-4-(4-fluorophenoxy) benzenesulfonamide], the “APC Flag (2 pt)” value was “− (2 pt)”.
As for `Cc1c(Cl)cccc1NS(=O)(=O)c1ccc(Oc2ccc(F)cc2)cc1` [Example 188, N-(3-chloro-2-methylphenyl)-4-(4-fluoro-phenoxy)benzenesulfonamide], the “APC Flag (2 pt)” value is on record as “− (2 pt)”.
With `O=S(=O)(Nc1ccc(F)c(Cl)c1)c1ccc(Oc2ccc(F)cc2)cc1` [Example 189, N-(3-chloro-4-fluorophenyl)-4-(4-fluoro-phenoxy)benzenesulfonamide], the “APC Flag (2 pt)” value is given as “− (2 pt)”.

The same experiment, now with this note: 8 concentrations tested.
Consider `Cc1ccc(N(S(=O)(=O)c2cc(Cl)c(Oc3ccc([N+](=O)[O-])cc3Cl)c(Cl)c2)S(=O)(=O)c2cc(Cl)c(Oc3ccc([N+](=O)[O-])cc3Cl)c(Cl)c2)cc1` [Example 137, 3,5-dichloro-4-(2-chloro-4-nitrophenoxy)-N-(4-methylphenyl)-N-(1,3-dichloro-2-(2-chloro-4-nitrophenoxy)-5-sulfonylbenzene) benzenesulfonamide], for which the “APC Flag 8 pt” value is “+”.
With `O=[N+]([O-])c1ccc(N(S(=O)(=O)c2cc(Cl)c(Oc3ccc([N+](=O)[O-])cc3Cl)c(Cl)c2)S(=O)(=O)c2cc(Cl)c(Oc3ccc([N+](=O)[O-])cc3Cl)c(Cl)c2)cc1` [Example 138, 3,5-dichloro-4-(2-chloro-4-nitrophenoxy)-N-(1,3-dichloro-2-(2-chloro-4-nitrophenoxy)-5-sulfonylbenzene)-N-(4-nitrophenyl) benzenesulfonamide], the “APC Flag 8 pt” value was “+”.
Still for that read-out and setting: with `N=C(N)NCCC[C@H](NS(=O)(=O)c1cc(Cl)c(Oc2ccc([N+](=O)[O-])cc2Cl)c(Cl)c1)C(N)=O` [Example 141, N^2-{[3,5-dichloro-4-(2-chloro-4-nitrophenoxy)phenyl]sulfonyl}argininamide] the entry was “−”; with `Cc1cc(C)c(N(S(=O)(=O)c2cc(Cl)c(Oc3ccc([N+](=O)[O-])cc3Cl)c(Cl)c2)S(=O)(=O)c2cc(Cl)c(Oc3ccc([N+](=O)[O-])cc3Cl)c(Cl)c2)c(C)c1` [Example 142, 3,5-dichloro-4-(2-chloro-4-nitrophenoxy)-N-mesityl-N-(1,3-dichloro-2-(2-chloro-4-nitrophenoxy)-5-sulfonylbenzene)benzene-sulfonamide], “+”; with `Cc1c(Cl)cccc1N(S(=O)(=O)c1cc(Cl)c(Oc2ccc([N+](=O)[O-])cc2Cl)c(Cl)c1)S(=O)(=O)c1cc(Cl)c(Oc2ccc([N+](=O)[O-])cc2Cl)c(Cl)c1` [Example 143, 3,5-dichloro-N-(3-chloro-2-methylphenyl)-4-(2-chloro-4-nitrophenoxy)-N-(1,3-dichloro-2-(2-chloro-4-nitrophenoxy)-5-sulfonylbenzene)benzenesulfonamide], “+”.
As for `Cc1cc(C)c(NS(=O)(=O)c2cc(Cl)c(Oc3ccc([N+](=O)[O-])cc3Cl)c(Cl)c2)c(C)c1` [Example 144, 3,5-dichloro-4-(2-chloro-4-nitrophenoxy)-N-mesitylbenzenesulfonamide], the “APC Flag 8 pt” value is recorded as “+”.
For `O=C(NCC1CC1)c1ccc(NS(=O)(=O)c2cc(Cl)c(Oc3ccc([N+](=O)[O-])cc3Cl)c(Cl)c2)cc1` [Example 152, N-(cyclopropylmethyl)-4-({[3,5-dichloro-4-(2-chloro-4-nitrophenoxy)phenyl]sulfonyl}amino)benzamide], the “APC Flag 8 pt” value is “+”.
Still for that read-out and setting: to `COc1ccc(NS(=O)(=O)c2cc(Cl)c(Oc3ccc([N+](=O)[O-])cc3Cl)c(Cl)c2)c(OC)c1OC` [Example 157, 3,5-dichloro-4-(2-chloro-4-nitrophenoxy)-N-(2,3,4-trimethoxyphenyl)benzenesulfonamide] belongs “+”; to `O=[N+]([O-])c1ccc(Oc2c(Cl)cc(S(=O)(=O)NC(=S)Nc3cccnc3)cc2Cl)c(Cl)c1` [Example 158, 3,5-dichloro-4-(2-chloro-4-nitrophenoxy)-N-[(pyridin-3-ylamino)carbonothioyl] benzenesulfonamide], “−”.
Still for that read-out and setting: with `Cc1cccc(NS(=O)(=O)c2cc(Cl)c(Oc3ccc([N+](=O)[O-])cc3Cl)c(Cl)c2)c1` [Example 161, 3,5-dichloro-4-(2-chloro-4-nitrophenoxy)-N-(3-methylphenyl)benzenesulfonamide] the entry was “+”.
Consider `O=[N+]([O-])c1ccc(Oc2c(Cl)cc(S(=O)(=O)Nc3ccc4c(c3)OCO4)cc2Cl)c(Cl)c1` [Example 162, N-1,3-benzodioxol-5-yl-3,5-dichloro-4-(2-chloro-4-nitrophenoxy)benzenesulfonamide], for which the “APC Flag 8 pt” value is “+”.
Same read-out and setting: to `COc1cccc(NS(=O)(=O)c2cc(Cl)c(Oc3ccc([N+](=O)[O-])cc3Cl)c(Cl)c2)c1` [Example 163, 3,5-dichloro-4-(2-chloro-4-nitrophenoxy)-N-(3-methoxyphenyl)benzenesulfonamide] belongs “+”; to `N#Cc1cccc(NS(=O)(=O)c2cc(Cl)c(Oc3ccc([N+](=O)[O-])cc3Cl)c(Cl)c2)c1` [Example 169, 3,5-dichloro-4-(2-chloro-4-nitrophenoxy)-N-(3-cyanophenyl)benzenesulfonamide], “+”.
`O=[N+]([O-])c1ccc(Oc2c(Cl)cc(S(=O)(=O)Nc3ccc(Cl)cc3)cc2Cl)c(Cl)c1` [Example 176, 3,5-dichloro-4-(2-chloro-4-nitrophenoxy)-N-(4-chlorophenyl)benzenesulfonamide]: the “APC Flag 8 pt” value is listed as “−”.
As for `O=[N+]([O-])c1ccc(Oc2c(Cl)cc(S(=O)(=O)Nc3cc(F)cc(F)c3)cc2Cl)c(Cl)c1` [Example 177, 3,5-dichloro-4-(2-chloro-4-nitrophenoxy)-N-(3,5-difluorophenyl)benzenesulfonamide], the “APC Flag 8 pt” value is “+”.
As to `O=[N+]([O-])c1ccc(Oc2c(Cl)cc(S(=O)(=O)Nc3cccc(Cl)c3Cl)cc2Cl)c(Cl)c1` [Example 178, 3,5-dichloro-4-(2-chloro-4-nitrophenoxy)-N-(2,3-dichlorophenyl)benzenesulfonamide], the “APC Flag 8 pt” value is “+”.
Regarding `N#Cc1c(Cl)cccc1Oc1ccc(S(=O)(=O)Nc2cccc(Br)c2)cc1` [Example 180, N-(3-bromophenyl)-4-(3-chloro-2-cyano-phenoxy)benzenesulfonamide], the “APC Flag 8 pt” value is recorded as “−”.
As to `Cc1c(Cl)cccc1NS(=O)(=O)c1ccc(Oc2cccc(Cl)c2C#N)cc1` [Example 181, 4-(3-chloro-2-cyanophenoxy)-N-(3-chloro-2-methylphenyl)benzenesulfonamide], the “APC Flag 8 pt” value is “−”.
The same measure, in the same setting: with `N#Cc1c(Cl)cccc1Oc1ccc(S(=O)(=O)Nc2ccc(F)c(Cl)c2)cc1` [Example 182, 4-(3-chloro-2-cyanophenoxy)-N-(3-chloro-4-fluorophenyl)benzenesulfonamide] the entry was “−”.
As for `O=[N+]([O-])c1cccc(Cl)c1Oc1ccc(S(=O)(=O)Nc2cccc(Br)c2)cc1` [Example 183, N-(3-bromophenyl)-4-(2-chloro-6-nitro-phenoxy)benzenesulfonamide], the “APC Flag 8 pt” value was “−”.
On the same count and under the same terms, to `Cc1c(Cl)cccc1NS(=O)(=O)c1ccc(Oc2c(Cl)cccc2[N+](=O)[O-])cc1` [Example 184, N-(3-chloro-2-methylphenyl)-4-(2-chloro-6-nitrophenoxy)benzenesulfonamide] belongs “−”; to `O=[N+]([O-])c1cccc(Cl)c1Oc1ccc(S(=O)(=O)Nc2ccc(F)c(Cl)c2)cc1` [Example 185, N-(3-chloro-4-fluorophenyl)-4-(2-chloro-6-nitrophenoxy)benzenesulfonamide], “−”.
